# Source: patent US8617563B2, “Antichlamydial agents” (Duke University, priority 2011, dated 2013)
# Entries after “also recorded” stand apart in the source; their conditions may differ. Where no end group is shown, it is not given here.
# How the values were obtained:
# C. muridarum CPAF = assay: GST-IncC cleavage by lysate of C. muridarum infected cells; assay type: biochemical; conditions: infected whole cell lysate
# Description: Cells were infected with an MOI of 1 and treated with CPAF inhibitor (SEQ ID NO:7) or control (SEQ ID NO:11) peptides at 12 hpi, fixed at 24 hpi and analyzed by IF with anti-L2 polyclonal antisera. Inclusion size was determined by measuring the inclusion diameter in μm by confocal microscopy of 50 infected cells. The number of cells with fragmented inclusions was determined by counting the number of infected cells out of 50 with more than one inclusion. (C) Sequence alignment and % sequence identify of full length CPAF and predicted inhibitory peptide sequence between C. trachomatis serovar LGV-L2, Chlamydia muridarum, and Chlamydophila caviae was determined using Geneious software (available at the Geneious website). […] GPIC or C. muridarum infected whole cell protein lysate was preincubated with SEQ ID NO:7 peptide or SEQ ID NO:11 control peptide, mixed with GST-IncC at 37° C., resolved by SDS-PAGE and stained with Coomassie blue. […] Inhibition of C. muridarum (E) and C. ceviae (F) growth was determined by counting the number of recovered IFUs. […] Inclusions were detected by IF with anti-LGV-L2 (A, B, E) antisera or anti-chlamydial LPS (F) monoclonal antibodies, and host nuclei sere detected by staining.
# CPAF = CPAF (Chlamydia trachomatis serovar D, UniProt O84866); assay type: cell-based, C. trachomatis; design: endogenous in cells; host or cells: HeLa cells infected with C. trachomatis LGV-L2 434/Bu (the bacteria make the protein and secrete it into the host cytosol); conditions: L2-infected HeLa cells, peptide at 12 hpi, harvested 30 hpi; 2-10 μM for vimentin
# Description: Uninfected and HeLa cells pre-infected with L2 for 30 hrs were treated with inhibitory peptides and infected with EBs for 10 min Tarp translocation was indirectly visualized with an anti-phosphotyrosine antibody (A) and quantified by counting 50 separate cells (B). The stability of newly translocated Tarp was assessed by infecting cells as in (A) but with S^35-labeled EBs, followed by sequential immunoprecipitation of Tarp and MOMP and Phosphoimager analysis of precipitated material (C (I-IV)). […] IC50 values were determined by assessing CPAF cleavage of an Abz-tagged CPAF substrate (SEQ ID NO:9) by HPLC. Assays were performed the presence of increasing amount of inhibitors. […] Extracellular bacteria were determined. […] The number of internalized EBs was quantified per cell (H). […]
# Rabbits were immunized with recombinant GST fusions to Ct005, IncC, IncD, Tarp, and hexa-histidine-tagged CPAF produced in E. coli BL-21 (available from Stratagene) and purified by affinity chromatography. […] To assess CPAF cleavage of membrane proteins and EB proteins, purified membranes and soluble EB protein lysate were incubated with 6× his-CPAF at 37° C., and resulting product analyzed by immunoblot. […]
# To establish if CPAF was inhibited by SEQ ID NO:7 during infection, vimentin cleavage was assessed in C. trachomatis LGV-L2 434-infected HeLa cells after treatment with a range of concentrations (2-10 μM).
# Chain of CPAF (O84866 276-601): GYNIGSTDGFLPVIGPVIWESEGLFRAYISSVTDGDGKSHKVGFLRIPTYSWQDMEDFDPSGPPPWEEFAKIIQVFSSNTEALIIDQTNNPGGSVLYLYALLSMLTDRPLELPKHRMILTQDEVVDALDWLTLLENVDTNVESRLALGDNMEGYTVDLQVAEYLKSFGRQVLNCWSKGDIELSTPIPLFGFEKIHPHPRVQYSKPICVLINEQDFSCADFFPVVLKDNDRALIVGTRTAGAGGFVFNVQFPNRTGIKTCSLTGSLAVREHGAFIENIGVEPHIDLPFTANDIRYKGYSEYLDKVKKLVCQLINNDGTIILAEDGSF
# Chain of CPAF (O84866 24-234): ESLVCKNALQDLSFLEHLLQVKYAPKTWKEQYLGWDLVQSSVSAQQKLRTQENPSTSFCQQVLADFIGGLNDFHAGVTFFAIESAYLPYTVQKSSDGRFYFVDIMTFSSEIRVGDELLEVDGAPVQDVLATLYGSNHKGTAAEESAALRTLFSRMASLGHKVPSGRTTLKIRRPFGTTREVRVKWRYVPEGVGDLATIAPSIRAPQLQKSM
substance,measurement,setting,value
SLFYSPMVPHFWAELRNHYATSGLKRRRRRRRRR-NH2 [SEQ ID NO:7],Inhibition of substrate cleavage by C. muridarum CPAF,C. muridarum CPAF,prevented cleavage of substrate; also recorded: inhibits C. muridarum CPAF
same,Inhibition of CPAF-mediated cleavage of vimentin and Puma in infected cells,CPAF,markedly inhibited; also recorded: loss of vimentin processing; also recorded: Vimentin and Puma cleavage was inhibited
